{
  "source": "patent US11311568B2",
  "about": "“Therapeutic pharmaceutical composition for cancer including miRNA” (Purmx Therapeutics, Inc., priority 2017, dated 2022)",
  "key": {"[1]": {"system": "malignant pleural mesothelioma cell strain MSTO-211H", "assay": "Cell growth inhibition, cell count after transfection", "format": "cell-based", "settings": "final concentration 10 nM, four days after transfection, FIG. 6", "description": "(§1) Among the above four miRNAs, miR-3140-3p which had particularly high cell growth inhibition effect was transfected in each of malignant pleural mesothelioma cell strains (MSTO-211H and EHMES-10), uterine sarcoma cell strain (MES-SA), and osteosarcoma cell strain (U2-OS), and cell proliferation was observed. […] Transfection was carried out with the following protocol.\n(§2) 1: To a 35 mm dish were added 500 μL of serum free medium (SFM) and 5 μL of RNAiMAX (Invitrogen).\n(§3) 2: To the solution from 1 was added 1 μL each of miR-Control or miR-3140-3p, miR-22-3p, and miR-34a-5p (stock conc. 20 μM) (final concentration 10 nM).\n(§4) 3: This was incubated at room temperature for 20 minutes.\n(§5) 4: 1.5 mL of a cell suspension diluted to 6.7×10^4 cells/mL was added to the 35 mm dish.\n(§6) 5: This was incubated at 37° C. under 5% CO2 condition.\n(§7) 6: The cells were counted four days after transfection."}, "[2]": {"system": "uterine sarcoma cell strain MES-SA", "assay": "Cell growth inhibition, cell count after transfection", "format": "cell-based", "settings": "final concentration 10 nM, four days after transfection, FIG. 8", "description": "as §1, §2, §3, §4, §5, §6, §7"}, "[3]": {"system": "osteosarcoma cell strain U2-OS", "assay": "Cell growth inhibition, cell count after transfection", "format": "cell-based", "settings": "final concentration 10 nM, four days after transfection, FIG. 9", "description": "as §1, §2, §3, §4, §5, §6, §7"}, "[4]": {"system": "malignant pleural mesothelioma cell strain EHMES-10", "assay": "Cell growth inhibition, cell count after transfection", "format": "cell-based", "settings": "EHMES-10, final concentration 10 nM, four days after transfection, FIG. 7", "description": "as §1, §2, §3, §4, §5, §6, §7"}, "[5]": {"system": "malignant pleural mesothelioma cell strain EHMES-10", "assay": "Antitumor effect in vivo, intrathoracic orthotopic transplantation model mouse", "design": "species or system mice (C-B-17/Icr-scid/scid Jcl)", "description": "The tumor suppression effect of miR-3140-3p in vivo was investigated with intrathoracic orthotopic transplantation model mouse.\n(§8) Six weeks-old male mice (C-B-17/Icr-scid/scid Jcl) were used as mice. Malignant pleural mesothelioma cell strain EHMES-10 which expresses the luciferase gene was used as the tumor cell.\nThe experiment protocol is shown below.\n(§9) 1: Mice were intraperitoneally administered 0.1 mL per 10 g of body weight of a mixed anesthetic drug of medetomidine hydrochloride, midazolam, and butorphanol tartrate.\n(§10) 2: After anesthesia, mouse chest hair was shaved, and an incision was made in the epidermis with scissors.\n(§11) 3: In the mouse pleural cavity 100 μL of tumor cells (3×10^7 cells/mL) was transplanted with a 27 G syringe for insulin.\n4: Three days after transplantation, imaging of tumor cells was performed with IVIS Spectrum CT In vivo Imaging System.\n(§12) 5: After imaging, grouping was performed with successfully transplanted mice.\n6: Mice were intraperitoneally administered 0.1 mL per 10 g of body weight of a mixed anesthetic drug of medetomidine hydrochloride, midazolam, and butorphanol tartrate to anesthetize the mice.\n7: After anesthesia, 100 μL of miRNA/A6K mixture was administered in the mouse pleural cavity.\n8: Imaging was performed every week from the first imaging, and tumor expansion was observed.\n9: The time and date of death of the mice was recorded, and mice survival rate was calculated.\nThe mixed anesthetic drug of medetomidine hydrochloride, midazolam, and butorphanol tartrate was prepared as in Table 4 below. The miRNA/A6K mixture was prepared as in Table 5. Moreover, the control group was administered the RNA shown in Table 6 instead of the miRNA of the present invention.\nNote that in order to improve expression efficiency, miRNA was administered as a double-strand in combination with a complementary strand comprising partial mismatch."}, "[6]": {"system": "breast cancer stem cell strain (MDA-MB231-luc-D3H2LN cells)", "assay": "Annexin V apoptosis marker expression by FACS", "format": "cell-based", "settings": "six days after transfection, FIG. 10 bottom", "description": "Moreover, by the protocol below, the expression of apoptosis marker Annexin V in breast cancer cells transfected with miR-3140-3p was analyzed.\n1: Transfection of miR-3140-3p was performed with a protocol similar to that described above.\n2: Six days after transfection, cells were recovered together with the supernatant.\n3: Samples for FACS were prepared according to the protocol of the Annexin V assay kit.\n4: Cells stained by Annexin V-FITC were stained with an antibody against cancer stem cell marker CD44 (eBioScience).\n5: The prepared samples were analyzed with Cell Sorter (SONY)."}, "[7]": {"system": "breast cancer stem cell strain (MDA-MB231-luc-D3H2LN cells)", "assay": "Cell growth inhibition, cell count after transfection", "format": "cell-based", "settings": "final concentration 12.5 nM, four days after transfection, FIG. 10 top", "description": "miR-3140-3p was transfected in a highly metastatic cancer cell strain of breast cancer (MDA-MB231-luc-D3H2LN cells), and cell proliferation was observed. […] Transfection was carried out with the following protocol.\nas §2\n2: To the solution from 1 was added 12.5 μL each of miR-Control or miR-3140-3p, miR-22-3p, and miR-34a-5p (stock conc. 2 μM) (final concentration 12.5 nM).\nas §4, §5, §6, §7"}, "[8]": {"system": "malignant pleural mesothelioma cell strain EHMES-10", "assay": "Comparison of antitumor effect with cisplatin in vivo, pleural cavity transplantation", "design": "species or system mice (C-B-17/Icr-scid/scid Jcl)", "settings": "miRNA/A6K in pleural cavity versus cisplatin 6 mg/kg intraperitoneal, EHMES-10 in pleural cavity, FIGS. 30-33", "text": "In order to investigate the relative superiority of antitumor effect of miR-3140-3p, the tumor suppression effect of cisplatin which is the first-line drug of malignant pleural mesothelioma and the tumor suppression effect of miR-3140-3p were compared in vivo.\nas §8\nThe protocol is shown below.\nas §9, §10, §11\n4: Four days after transplantation, imaging of tumor cells was performed with IVIS Spectrum CT In vivo Imaging System.\nas §12\n6: Mice were intraperitoneally administered 0.1 mL per 10 g of body weight of a mixed anesthetic drug of medetomidine hydrochloride, midazolam, and butorphanol tartrate to anesthetize the mice. […]"}},
  "data": [
    {"substance": "miR-3140-3p: Mature-miRNA, AGCUUUUGGGAAUUCAGGUAGU (SEQ ID NO. 2) (listed as RNA, chemistry not given here; listed as Homo sapiens)", "values": [
      {"measurement": "cell growth inhibition effect (cell count)", "setting": "[1]", "result": "extremely high cell growth inhibition effect compared to prior art miR-22-3p and miR-34a-5p"},
      {"measurement": "cell growth inhibition effect (cell count)", "setting": "[2]", "result": "extremely high cell growth inhibition effect compared to prior art miR-22-3p and miR-34a-5p"},
      {"measurement": "cell growth inhibition effect (cell count)", "setting": "[3]", "result": "extremely high cell growth inhibition effect compared to prior art miR-22-3p and miR-34a-5p"},
      {"measurement": "cell growth inhibition effect (cell count)", "setting": "[4]", "result": "extremely high cell growth inhibition effect compared to prior art miR-22-3p and miR-34a-5p"},
      {"measurement": "tumor reduction by imaging", "setting": "[5]; one administration of miRNA/A6K in pleural cavity, 3.2 nmol (45 μg) per mouse, Day 10 to Day 24 after transplantation, FIG. 20", "result": "tumor reduction was seen"},
      {"measurement": "tumor expansion (imaging results digitized)", "setting": "[5]; one administration of miRNA/A6K in pleural cavity, FIG. 21", "result": "significantly suppressed tumor expansion"},
      {"measurement": "survival rates of mice", "setting": "[5]; one administration of miRNA/A6K in pleural cavity, FIG. 22", "result": "survival rates of mice had improved"},
      {"measurement": "survival rates of mice", "setting": "[5]; three administrations of miRNA/A6K in pleural cavity, FIG. 28", "result": "more improved"},
      {"measurement": "suppression of malignant pleural mesothelioma (imaging, survival)", "setting": "[5]; three administrations of miRNA/A6K in pleural cavity, FIGS. 26-28", "result": "significantly suppressed malignant pleural mesothelioma"},
      {"measurement": "suppression of malignant pleural mesothelioma (imaging, survival)", "setting": "[5]; two administrations of miRNA/A6K in pleural cavity, FIGS. 23-25", "result": "significantly suppressed malignant pleural mesothelioma"},
      {"measurement": "apoptosis marker Annexin V positive", "setting": "[6]", "result": 96.97, "unit": "%"},
      {"measurement": "cell growth inhibition effect (cell count)", "setting": "[7]", "result": "extremely high cell growth inhibition effect"},
      {"measurement": "antitumor effect (tumor suppression, survival rates) compared with cisplatin", "setting": "[8]", "result": "equivalent or higher compared to cisplatin"}
    ]}
  ]
}
